# Several values for one entry are separate records, joined by “and”; a condition that tells them apart may be missing. Equal values may be shown once.
# What was measured:
# 20S Proteasome = assay: 20S proteasome activity (% inhibition) in rodent brain; assay type: in vivo, mouse; set-up: 20S Proteasome Activity (% Inhibition), Blood, Trough / 20S Proteasome Activity (% Inhibition), Blood, Peak (2 hr) / 20S Proteasome Activity (% Inhibition), Tumor, Trough / 20S Proteasome Activity (% Inhibition), Tumor, Peak (2 hr): concentration or dose not given beside the values; settings: tumor-bearing mouse, IV; individual mice 1 and 2; listed as BTZ
# [1] = test system: malignant glioma stem-like cells; assay: HIF1-α and VEGF levels in malignant glioma stem-like cells; assay type: cell-based
# [2] = Phase 1b MRZ + TMZ (+RT) in newly diagnosed G4 MG: adverse events, DLT; assay type: in vivo, human
# Method: This is a Phase 1b, open-label, 3+3, dose-escalation followed by dose-expansion study in patients with newly diagnosed G4 MG who have not previously received any local or systemic therapy for their G4 MG. The study will examine the effect of the addition of MRZ to standard of care treatment utilizing two study arms: Concomitant Treatment in which MRZ will be combined with TMZ+RT and Adjuvant Treatment in which MRZ will be combined with TMZ. The study will be conducted in two Stages. In Stage 1 (Dose-Escalation): 3 to 6 evaluable patients per MRZ dose cohort will be enrolled in each study arm. […] A total of approximately 48 patients will be enrolled in Stages 1 and 2 combined. Patients may not be enrolled in more than 1 MRZ dose cohort per arm.
# Concomitant Treatment consists of a 6 week (42 day) treatment period, followed by a 4 (−1) week break from treatments. All patients will receive intravenous (IV) MRZ infusion on Days 1, 8, 15, 29, and 36 as a 10 minute infusion. IV hydration will be given prior to the infusion. Focal RT will be administered once daily, 5 days/week, for 30 doses over 6 weeks to a total dose of 60 Gy, starting on Day 1. TMZ will be administered once daily, 7 days/week, for 6 weeks, starting on Day 1, at a dose of 75 mg/m^2. Patients who complete Concomitant Treatment may continue on to Adjuvant Treatment.
# All patients will receive IV MRZ infusion on Days 1, 8, and 15 as a 10 minute infusion, in 28-day cycles. IV hydration will be given prior to the infusion. TMZ will be administered daily for 5 consecutive days, starting on Day 1 of Cycle 1 (C1D1), at a dose of 150 mg/m^2. If tolerated in Cycle 1, the TMZ dose will be increased on Day 1 of Cycle 2 (C2D1) to a dose of 200 mg/m^2.
# [3] = patient 301-C202, action taken None
structure (smiles),measurement,setting,value
"CC(C)C[C@H](NC(=O)[C@H](Cc1ccccc1)NC(=O)c1cnccn1)B(O)O [bortezomib, reference compound]","20S Proteasome Activity (% Inhibition), Blood, Peak (2 hr)",20S Proteasome,81% and 83%
same,"20S Proteasome Activity (% Inhibition), Blood, Trough",20S Proteasome,18% and 13%
same,"20S Proteasome Activity (% Inhibition), Tumor, Peak (2 hr)",20S Proteasome,83% and 93%
same,"20S Proteasome Activity (% Inhibition), Tumor, Trough",20S Proteasome,64% and 41%
same,HIF1-α and VEGF levels,[1],induces HIF1-α and VEGF levels
"Cn1nnc2c(C(N)=O)ncn2c1=O [temozolomide, reference compound]","Abdominal pain, Grade ≥3 TEAE, drug related","[2]; human, in vivo",0 (0.0%)
same,"Confusional state, treatment-related TEAE, number of patients","[2]; human, in vivo",0
same,"Confusional state, treatment-related TEAE, percent of patients","[2]; human, in vivo",(0.0%)
same,"Constipation, treatment-related TEAE, number of patients","[2]; human, in vivo",3
same,"Constipation, treatment-related TEAE, percent of patients","[2]; human, in vivo",(15.0%)
same,"Decreased appetite, treatment-related TEAE, number of patients","[2]; human, in vivo",4
same,"Decreased appetite, treatment-related TEAE, percent of patients","[2]; human, in vivo",(20.0%)
same,"Dehydration, Grade ≥3 TEAE, drug related","[2]; human, in vivo",0 (0.0%)
same,"Diarrhoea, treatment-related TEAE, number of patients","[2]; human, in vivo",2
same,"Diarrhoea, treatment-related TEAE, percent of patients","[2]; human, in vivo",(10.0%)
same,"Dizziness, treatment-related TEAE, number of patients","[2]; human, in vivo",2
same,"Dizziness, treatment-related TEAE, percent of patients","[2]; human, in vivo",(10.0%)
same,"Dose reduction, reason Adverse Event","[2]; human, in vivo",1 (5.0%)
same,"Fatigue, Grade ≥3 TEAE, drug related","[2]; human, in vivo",1 (5.0%)
same,"Fatigue, treatment-related TEAE, number of patients","[2]; human, in vivo",11
same,"Fatigue, treatment-related TEAE, percent of patients","[2]; human, in vivo",(55.0%)
same,"Hallucination, Grade ≥3 TEAE, drug related","[2]; human, in vivo",0 (0.0%)
same,"Hallucination, treatment-related TEAE, number of patients","[2]; human, in vivo",0
same,"Hallucination, treatment-related TEAE, percent of patients","[2]; human, in vivo",(0.0%)
same,"Headache, Grade ≥3 TEAE, drug related","[2]; human, in vivo",0 (0.0%)
same,"Headache, treatment-related TEAE, number of patients","[2]; human, in vivo",0
same,"Headache, treatment-related TEAE, percent of patients","[2]; human, in vivo",(0.0%)
same,"Insomnia, Grade ≥3 TEAE, drug related","[2]; human, in vivo",0 (0.0%)
same,"Muscular weakness, treatment-related TEAE, number of patients","[2]; human, in vivo",0
same,"Muscular weakness, treatment-related TEAE, percent of patients","[2]; human, in vivo",(0.0%)
same,"Musculoskeletal pain, Grade ≥3 TEAE, drug related","[2]; human, in vivo",0 (0.0%)
same,"Nausea, treatment-related TEAE, number of patients","[2]; human, in vivo",9
same,"Nausea, treatment-related TEAE, percent of patients","[2]; human, in vivo",(45.0%)
same,Number of Patients with drug Discontinued,"[2]; human, in vivo",0
same,Number of Patients with ≥1 Dose Reduction,"[2]; human, in vivo",1 (5.0%)
same,"Ovarian cyst, Grade ≥3 TEAE, drug related","[2]; human, in vivo",0 (0.0%)
same,"Pelvic infection, Grade ≥3 TEAE, drug related","[2]; human, in vivo",0 (0.0%)
same,"Platelet count decreased, Grade ≥3 TEAE, drug related","[2]; human, in vivo",1 (5.0%)
same,"Platelet count decreased, treatment-related TEAE, number of patients","[2]; human, in vivo",3
same,"Platelet count decreased, treatment-related TEAE, percent of patients","[2]; human, in vivo",(15.0%)
same,"Rash maculo-papular, treatment-related TEAE, number of patients","[2]; human, in vivo",3
same,"Rash maculo-papular, treatment-related TEAE, percent of patients","[2]; human, in vivo",(15.0%)
same,"Vomiting, Grade ≥3 TEAE, drug related","[2]; human, in vivo",0 (0.0%)
same,"Vomiting, treatment-related TEAE, number of patients","[2]; human, in vivo",7
same,"Vomiting, treatment-related TEAE, percent of patients","[2]; human, in vivo",(35.0%)
same,"SAE Dehydration, relationship to drug",[2]; in vivo,Not Suspected/
same,"SAE Fatigue, relationship to drug",[2]; in vivo,Not Suspected/
same,"SAE Hallucination, relationship to drug",[2]; in vivo,Not Suspected/
same,"SAE Nausea, relationship to drug",[2]; in vivo,Not Suspected/
same,"SAE Vomiting, relationship to drug",[2]; in vivo,Not Suspected/
same,"SAE Nephrolithiasis, relationship to drug","[2]; patient 104-C302, action taken None",Not Suspected/
same,"SAE Confusional state, relationship to drug","[2]; patient 301-A202, action taken None",Not Suspected/
same,"SAE Ovarian cyst, relationship to drug","[2]; patient 301-C202, action taken Dose Delayed",Not Suspected/
same,"SAE Convulsion, relationship to drug",[2]; [3],Not Suspected/
same,"SAE Pelvic infection, relationship to drug",[2]; [3],Not Suspected/
